According to patent US20260224595A1, “COMPOUNDS FOR THE TREATMENT OF MYOTONIC DYSTROPHY” (ETH ZURICH, priority 2022, published 2026):

Test system: targetomes of let-7, miR-1, miR-9, miR-29, miR-30, miR-107 and miR-181
Test: RNA-Seq of miRNA targetomes in DM myoblasts and myotubes
Assay type: cell-based, human
Experimental: As described in Example 3, total RNA was isolated from DM-patient and healthy cells, and cDNA libraries were prepared for three conditions (healthy volunteer (HV); DM; DM+Compound II) for DM1 and DM2 backgrounds. The expression levels of predicted targetomes of miRNAs let-7, miR-1, miR-9, miR-29, miR-30, miR-107 and miR-181 were then compared, using miR-122 as well as more than 2,000 transcripts that are not predicted targets of any miRNA as negative controls. Three pair-wise comparisons were performed to measure: i) how a targetome varies between healthy and diseased cells (HV versus DM), ii) how a targetome responds to treatment with the inventive compounds (DM versus DM+Compound II) and, iii) how a Compound II-treated DM-targetome compares to that of a healthy signature. For each pair-wise comparison, the third dataset was used as a reference and the fold changes were calculated for each target transcript (e.g. DM1 vs. DM1+Compound II, with fold changes calculated relative to HV).
Primary myoblasts or myotubes derived from DM1 or DM2 patient samples and non-DM healthy control individuals were cultured for 90% confluence and then treated with 120 μM Compound II for 72 h. Myoblasts were harvested by trypsinization, and separately myotubes were isolated by a minimal trypsin treatment followed by gentle centrifugation to sediments to separate them from the remaining mono-nucleated cells. Cell pellets were washed with PBS and RNA isolation was performed with Trizol® by using the Dircet-zol™ RNA MiniPrep Plus Kit (ZYMO Research, Freiburg, Germany). Library preparation was performed using the TruSeq Stranded mRNA Kit (Illumina, San Diego, CA, USA) with the TruSeq RNA Single Index Set A (Illumina) according to the recommended procedure. Quality and size distribution of the generated libraries was validated using an Agilent 2100 bioanalyzer with high-sensitivity RNA chip (Agilent) and RNA yield was measured using the Qubit […] HS Assay Kit followed by pooling of the libraries in batches of 12 and sequencing of […] pooled library on an Nextseq 500/High Output Flow Cell Cartridge using a paired end, 2×76 reads, single index protocol.
RNA-Seq reads were mapped to the human genome (build GRCh38) using STAR (Dobin et al., (2013). STAR: ultrafast universal RNA-seq aligner. Bioinformatics 29, 15-21) with gene annotations from gencode (www.gencodegenes.org; version 40). Reads mapping uniquely to exons were counted for each gene using htseq-count (Anders et al., (2015). HTSeq—a Python framework to work with high-throughput sequencing data. Bioinformatics 31, 166-169) with the parameter -s reverse and -m intersection_strict. Expression levels were quantified as TPM (transcripts per million), by dividing read counts by the total exon length for each gene, and then normalising by the sum of all values in each sample and multiplying by one million. Fold changes were calculated between the average expression levels in three conditions: DMSO-treated healthy volunteer samples (HV), DMSO-treated DM patient samples (DM), and Compound II-treated DM patient samples (DM+Compound II). Genes with an average TPM>1 were considered in each of these three conditions. For myoblasts, three samples were included for all conditions. For myotubes, three samples were included for the HV, DM1 and DM2 conditions, but two Compound II-treated samples were excluded (one DM1 and one DM2) due to a very low read count (<500000 exonic reads), resulting in […] and two DM2+Compound II myotube samples being included in the analysis. Cumulative density functions of expression changes of miRNA target genes were plotted using custom python scripts.

SMILES: CC(=O)N(C)c1cccc(-c2ccc3nnc(C)n3n2)c1 [Compound II]
- shift of the targetomes of the miRNAs tested versus healthy volunteers (DM1 and DM2 cells, FIGS. 5B, 5D, 6B and 6D): levels comparable to those of healthy volunteers
- median suppression of the targetomes of let-7 and miRs -9, -1, -29, -30, -107, -181 (DM1 myoblasts, 120 μM, 72 h, RNA-Seq): 10-12%
- CDF curves of DM1+Compound II versus HV targetome signature for miR-1, miR-9, miR-29, miR-30 and miR-107 (DM1 myoblasts, FIG. 5B): indistinguishable overlay
- median suppression of the seven miRNA targetomes (DM1 myotubes, 120 μM, 72 h, RNA-Seq): 12-15%
- median suppression of the seven targetomes (DM2 myoblasts, 120 μM, 72 h, RNA-Seq): 22-25%
- targetome shift versus HV signature (DM2 myoblasts, FIG. 5D): overshoot
- median suppression of the seven miRNA targetomes (DM2 myotubes, 120 μM, 72 h, RNA-Seq): 10-12%
